The experiment has as its target Vascular endothelial growth factor receptor 2 (Homo sapiens, UniProt P35968). Kind of experiment: Kinase Inhibition Assay.

Sequence of Vascular endothelial growth factor receptor 2 (P35968 whole entry): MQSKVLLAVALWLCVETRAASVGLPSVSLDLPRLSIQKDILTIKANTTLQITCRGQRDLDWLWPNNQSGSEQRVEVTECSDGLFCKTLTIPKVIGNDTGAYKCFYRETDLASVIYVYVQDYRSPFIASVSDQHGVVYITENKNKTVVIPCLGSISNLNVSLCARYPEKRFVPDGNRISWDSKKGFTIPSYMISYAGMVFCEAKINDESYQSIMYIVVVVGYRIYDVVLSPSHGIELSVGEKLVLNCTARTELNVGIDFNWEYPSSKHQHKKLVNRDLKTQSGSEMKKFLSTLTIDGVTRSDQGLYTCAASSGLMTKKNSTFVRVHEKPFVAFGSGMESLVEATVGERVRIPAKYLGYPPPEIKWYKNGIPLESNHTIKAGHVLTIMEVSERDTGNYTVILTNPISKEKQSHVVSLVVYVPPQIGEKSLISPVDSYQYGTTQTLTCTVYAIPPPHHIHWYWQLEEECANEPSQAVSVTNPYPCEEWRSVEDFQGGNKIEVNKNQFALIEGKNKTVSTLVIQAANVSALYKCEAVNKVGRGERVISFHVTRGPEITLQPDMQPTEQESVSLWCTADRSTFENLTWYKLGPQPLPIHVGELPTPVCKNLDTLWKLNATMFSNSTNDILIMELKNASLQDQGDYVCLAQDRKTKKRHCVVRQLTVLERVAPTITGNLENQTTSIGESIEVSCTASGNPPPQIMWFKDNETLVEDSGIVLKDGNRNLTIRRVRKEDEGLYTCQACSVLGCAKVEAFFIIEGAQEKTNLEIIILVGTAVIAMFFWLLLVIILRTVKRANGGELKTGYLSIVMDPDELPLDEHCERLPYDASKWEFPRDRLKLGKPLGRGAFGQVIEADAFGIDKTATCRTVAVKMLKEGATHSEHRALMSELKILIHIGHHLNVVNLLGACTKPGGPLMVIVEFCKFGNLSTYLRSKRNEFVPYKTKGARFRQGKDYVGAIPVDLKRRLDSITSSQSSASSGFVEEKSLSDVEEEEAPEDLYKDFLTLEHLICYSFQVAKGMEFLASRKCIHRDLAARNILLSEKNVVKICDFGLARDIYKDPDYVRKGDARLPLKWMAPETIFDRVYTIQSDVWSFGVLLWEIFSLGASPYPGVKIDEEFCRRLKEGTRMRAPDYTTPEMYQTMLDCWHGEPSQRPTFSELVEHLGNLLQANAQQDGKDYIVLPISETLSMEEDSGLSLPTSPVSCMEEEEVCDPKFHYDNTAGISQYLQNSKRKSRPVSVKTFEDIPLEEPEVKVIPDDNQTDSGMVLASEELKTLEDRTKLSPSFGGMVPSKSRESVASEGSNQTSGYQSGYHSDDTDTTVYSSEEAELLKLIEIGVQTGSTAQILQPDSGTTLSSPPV

For `NC[C@@H]1O[C@H](O[C@H]2[C@@H](O)[C@H](O[C@@H]3[C@@H](O)[C@H](N)C[C@H](N)[C@H]3O[C@H]3O[C@H](CN)[C@@H](O)[C@H](O)[C@H]3N)O[C@@H]2CO)[C@H](N)[C@@H](O)[C@@H]1O` [KDR Kinase Inhibitor, 3], the IC50 (as a rule, the point on the concentration scale where inhibition reaches its midpoint) is 18 nM.

These data come from BindingDB's records for doi:10.1111/j.1747-0285.2007.00488.x (Shanghai Jiao Tong University, 2007).
